“And” between values parts separate entries of the source, which are not always exact repeats. Equal entries are not always repeated.
Tests used:
CYP1A2 = target: T1, CYP1A2 (Homo sapiens, UniProt P05177); test: CYP inhibition, CYP1A2; format: in vitro ADME
T1 sequence (P05177 1-516): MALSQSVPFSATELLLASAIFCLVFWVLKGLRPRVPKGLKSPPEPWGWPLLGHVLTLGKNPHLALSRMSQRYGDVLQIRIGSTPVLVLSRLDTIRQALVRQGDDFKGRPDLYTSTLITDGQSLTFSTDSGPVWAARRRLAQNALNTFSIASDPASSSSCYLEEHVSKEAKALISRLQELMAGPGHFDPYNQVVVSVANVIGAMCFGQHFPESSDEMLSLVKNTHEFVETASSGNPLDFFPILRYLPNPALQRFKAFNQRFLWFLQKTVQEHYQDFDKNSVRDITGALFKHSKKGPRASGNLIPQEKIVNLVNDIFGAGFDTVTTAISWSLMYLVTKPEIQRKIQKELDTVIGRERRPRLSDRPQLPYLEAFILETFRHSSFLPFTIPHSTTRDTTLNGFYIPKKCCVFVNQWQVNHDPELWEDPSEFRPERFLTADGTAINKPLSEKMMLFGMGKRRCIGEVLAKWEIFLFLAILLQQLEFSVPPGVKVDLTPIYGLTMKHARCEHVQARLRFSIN
Experimental: (§1) At pre-set time-points, blood concentration of JH4 was determined by LC-MS/MS analysis[22],[23]. Other chemicals were also tested using similar protocol. In vitro ADME studies (plasma protein binding, CYP inhibition, microsomal stability, plasma stability, and hERG inhibition) were performed by New Drug Development Center (Daegu, Korea) using standard protocols[24],[25].

CYP2C9 = CYP2C9 (Homo sapiens, UniProt P11712); test: CYP inhibition, CYP2C9; format: in vitro ADME; set-up: unit not given here
Sequence of CYP2C9 (P11712 whole entry): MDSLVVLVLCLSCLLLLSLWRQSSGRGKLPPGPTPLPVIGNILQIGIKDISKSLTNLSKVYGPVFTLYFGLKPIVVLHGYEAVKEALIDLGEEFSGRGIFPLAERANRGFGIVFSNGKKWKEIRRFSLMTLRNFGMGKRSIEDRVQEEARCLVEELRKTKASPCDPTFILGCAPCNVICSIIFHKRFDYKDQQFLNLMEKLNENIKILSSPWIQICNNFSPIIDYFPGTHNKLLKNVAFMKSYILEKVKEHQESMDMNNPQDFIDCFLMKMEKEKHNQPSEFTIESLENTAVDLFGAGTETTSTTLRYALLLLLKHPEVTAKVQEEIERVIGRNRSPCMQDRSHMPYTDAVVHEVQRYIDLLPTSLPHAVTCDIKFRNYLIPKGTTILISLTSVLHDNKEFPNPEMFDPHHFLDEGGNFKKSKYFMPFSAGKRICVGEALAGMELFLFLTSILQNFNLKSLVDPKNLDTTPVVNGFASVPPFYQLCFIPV
Experimental: as §1

CYP2C19 = CYP2C19 (Homo sapiens, UniProt P33261); test: CYP inhibition, CYP2C19; format: in vitro ADME
Sequence of CYP2C19 (P33261 whole entry): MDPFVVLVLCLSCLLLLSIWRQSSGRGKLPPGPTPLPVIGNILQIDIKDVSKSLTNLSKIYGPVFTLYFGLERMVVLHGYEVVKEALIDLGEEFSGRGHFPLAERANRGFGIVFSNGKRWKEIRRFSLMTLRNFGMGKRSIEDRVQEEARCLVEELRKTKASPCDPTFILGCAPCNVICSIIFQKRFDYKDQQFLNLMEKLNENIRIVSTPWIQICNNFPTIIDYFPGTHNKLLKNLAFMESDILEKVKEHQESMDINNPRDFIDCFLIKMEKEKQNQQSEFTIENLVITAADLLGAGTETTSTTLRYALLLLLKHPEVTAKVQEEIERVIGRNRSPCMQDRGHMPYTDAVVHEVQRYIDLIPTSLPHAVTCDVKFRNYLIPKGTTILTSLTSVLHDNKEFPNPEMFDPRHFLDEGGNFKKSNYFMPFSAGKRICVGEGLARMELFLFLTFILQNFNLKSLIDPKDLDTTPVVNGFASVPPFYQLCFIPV
Experimental: as §1, with “For PK analysis, 5 mg/kg of JH4 in 10% DMSO, 5% […] solution were intravenously injected and 10 mg/kg of JH4 in 10% NMP and 90% PEG400 solution were orally delivered. At” for “At”

Lmna G609G/+ mouse [1] = test: Radiological examination (kyphosis index, incisors); format: in vivo; conditions: Lmna G609G/+ mice
Experimental: The radiographic study was performed in anaesthetized living mice using a human radiographic system (College of Veterinary Medicine, Gyeongsang National University, Korea). A single radiograph of right lateral view of the whole body was obtained. Age-matched (at 41 weeks old) Lmna^+/+ mice, untreated Lamn^G609G/+ mice, and progerinin-treated Lmna^G609G/+ mice were radiographed. The images were recorded in DICOM format and then transferred to a personal computer. KI[28],[30] and abnormalities of the incisors were evaluated. Data processing and analysis were performed using a RadiAnt DICOM system in Institute of Animal Medicine, College of Veterinary Medicine, Gyeongsang National University (Jinju, Korea). […]
LmnaG609G transgenic mice at 41 weeks of age. Abundant adipose tissues are present in abdomens of
Lmna+/+ and progerin- treated LmnaG609G/+ mice compared to untreated LmnaG609G/+ mice. Kyphosis Index
(KI) index was accessed after 8-week treatment.
untreated LmnaG609G/+, and D011- treated LmnaG609G/+ mice at 41 weeks of age (unpaired t-test), *p < 0.05.
Severity of kyphosis depends on genotype and treatment of SLC-D011. H. Gross morphology of age-

Lmna G609G/+ mouse [2] = test: Histology analysis (Masson Trichrome, H&E); format: in vivo; conditions: Lmna G609G/+ mice, oral 50 mg/kg daily, 8 weeks
Experimental: Tissue specimens were fixed in 4% PFA and embedded in paraffin. Paraffin blocks were sectioned and transferred onto adhesive-coated slides. After deparaffinization and rehydration, tissue sections were stained with Masson Trichrome. Histology analysis was performed by BioLead Inc. (Seoul, Korea).
Fig. S11. Histological analysis of age- matched Lmna+/+ mice (left), untreated Lamn G609G/+ mice (middle) and progerinin- treated LmnaG609G/+ mice (right, Lmna +/+: n = 4; un tr e at e d Lmna G609G/+: n = 6; pr o ge r in -treated LmnaG609G/+: n=6). A -C. Masson Trichrome staining for fibrosis analysis was performed after 8-week treatment. A. Reduction of fibrosis in heart after administration of progeirnin in L mn a G609G transgenic mice.
The collagen-rich fibrotic area (blue) is widely distributed in untreated LmnaG609G/+ mi c e compared to Lmna+/+ and progerin- treated LmnaG609G/+ mi c e. B. Fibrosis in liver of Lmna G609G transgenic mice was reduced by progerinin. C. Unt r eat ed LmnaG609G/+ mi c e show a relatively loose connection between blood vessel walls and tissues in lungs. D -E. Hematoxylin and Eosin (H&E) staining was performed to compare skin and bones of Lmna +/+ and LmnaG609G mice. Conditions of foot pad skin (D), vertebra (E), and femur (F) of Lmna +/+ and progerin-treated LmnaG609G/+ mice were better than those of untreated Lmna G609G/+ mice. […]

For CC1(C)Oc2cc3oc(=O)ccc3cc2C[C@@H]1OC/C=C/c1ccccc1 [SLC-D011], the CYP inhibition (CYP1A2) was 81.6, the CYP inhibition (CYP2C9) was 78.4 and the CYP inhibition (CYP2C19) was 28.8. For the same compound, the Abnormalities of incisors (Lmna G609G/+ mouse [1]; 41 weeks of age) was “ameliorated these abnormalities”, the “Kyphosis index (KI)” value (Lmna G609G/+ mouse [1]; 41 weeks of age) was “recovered” and the Kyphosis index (Lmna G609G/+ mouse [1]; Ave) was 4.2583. For the same compound, the Kyphosis index (Lmna G609G/+ mouse [1]; individual mouse) was 3.759 and 3.649 and 5.045 and 4.58 and the “Fibrosis in heart and liver (Masson Trichrome)” value (Lmna G609G/+ mouse [2]) was “reduced”.

From article PMC7782499, “Progerinin, an optimized progerin-lamin A binding inhibitor, ameliorates premature senescence phenotypes of Hutchinson-Gilford progeria syndrome” (Communications Biology, 2021)
